Experiments:
Format in all cases: in vivo
Abutilon [1] = assay: Pre-emergent herbicidal action (B.2); details: 500 bis 2000 [g/ha], evaluated after 3 weeks
Procedure, shortened: (§1)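 Immediately after sowing in greenhouse, soil surface sprayed with aqueous dispersion of an emulsion concentrate at 2000-500 g active ingredient/ha. Plants kept at 22-25 °C, 50-70% relative humidity; damage rated after 3 weeks on a 1 (dead/not germinated) to 9 (normal growth) scale.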

Alopecurus myos. [2] = assay: Pre-emergent herbicidal action (B.2); details: 500 bis 2000 [g/ha], evaluated after 3 weeks
Procedure, shortened: as §1

Amaranthus ret. [3] = assay: Pre-emergent herbicidal action (B.2); details: 500 bis 2000 [g/ha], evaluated after 3 weeks
Procedure, shortened: as §1

Avena fatua [4] = assay: Pre-emergent herbicidal action (B.2); details: 500 bis 2000 [g/ha], evaluated after 3 weeks
Procedure, shortened: as §1

Bromus tectorum [5] = assay: Pre-emergent herbicidal action (B.2); details: 500 bis 2000 [g/ha], evaluated after 3 weeks
Procedure, shortened: as §1

Chenopodium Sp. [6] = assay: Pre-emergent herbicidal action (B.2); details: 500 bis 2000 [g/ha], evaluated after 3 weeks
Procedure, shortened: as §1

Chrysanthe. leuc. [7] = assay: Pre-emergent herbicidal action (B.2); details: 500 bis 2000 [g/ha], evaluated after 3 weeks
Procedure, shortened: as §1

Digitaria sang. [8] = assay: Pre-emergent herbicidal action (B.2); details: 500 bis 2000 [g/ha], evaluated after 3 weeks
Procedure, shortened: as §1

Echinochloa crus galli [9] = assay: Pre-emergent herbicidal action (B.2); details: 500 bis 2000 [g/ha], evaluated after 3 weeks
Procedure, shortened: as §1

Galium aparine [10] = assay: Pre-emergent herbicidal action (B.2); details: 500 bis 2000 [g/ha], evaluated after 3 weeks
Procedure, shortened: as §1

Ipomoea = assay: Pre-emergent herbicidal action (B.2); details: 500 bis 2000 [g/ha], evaluated after 3 weeks
Procedure, shortened: as §1

Lolium perenne [11] = assay: Pre-emergent herbicidal action (B.2); details: 500 bis 2000 [g/ha], evaluated after 3 weeks
Procedure, shortened: as §1

Sinapis [12] = assay: Pre-emergent herbicidal action (B.2); details: 500 bis 2000 [g/ha], evaluated after 3 weeks
Procedure, shortened: as §1

Solanum nigrum [13] = assay: Pre-emergent herbicidal action (B.2); details: 500 bis 2000 [g/ha], evaluated after 3 weeks
Procedure, shortened: as §1

Sorghum halep. [14] = assay: Pre-emergent herbicidal action (B.2); details: 500 bis 2000 [g/ha], evaluated after 3 weeks
Procedure, shortened: as §1

Stellaria [15] = assay: Pre-emergent herbicidal action (B.2); details: 500 bis 2000 [g/ha], evaluated after 3 weeks
Procedure, shortened: as §1

Veronica Sp. [16] = assay: Pre-emergent herbicidal action (B.2); details: 500 bis 2000 [g/ha], evaluated after 3 weeks
Procedure, shortened: as §1

Soja [17] = assay: Pre-emergent herbicidal action (B.2), crop tolerance; details: 500 bis 2000 [g/ha], evaluated after 3 weeks
Description: (§2) Im Gewächshaus wird unmittelbar nach der Einsaat der Versuchspflanzen in Saatschalen die Erdoberfläche mit einer wässrigen Dispersion der Wirkstoffe, erhalten aus einem 25 %igen Emulsionskonzentrat behandelt. Es werden Konzentrationen von 2000-500 g Wirksubstanz/Hektar angewendet. Die Saatschalen werden im Gewächshaus bei 22-25° C und 50-70 % relativer Luftfeuchtigkeit gehalten und der Versuch nach 3 Wochen ausgewertet und die Resultate nach folgender Notenskala ausgewertet. • 1 Pflanze hat nicht gekeimt oder ist eingegangen • 2-3 sehr starke Schäden • 4 starke Schäden • 5 mittlere Schäden, die Pflanzen sind verkümmert • 6 Schäden, die Pflanze kann regenerieren • 7-8 leichte Schäden • 9 normales Wachstum, wie das unbehandelter Pflanzen
(§3) Boniturnoten von 1 bis 4 (insbesondere von 1 bis 3) weisen auf eine gute bis sehr gute Herbizidwirkung hin. Boniturnoten von 6 bis 9 (insbesondere 7 bis 9) weisen auf eine gute Toleranz (insbesondere bei Kulturpflanzen) hin.

Abutilon [18] = assay: Post-emergent herbicidal action, contact herbicide (B.3); details: 500 bis 2000 [g/ha], 15 days after treatment
Procedure, shortened: (§4)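 Monocot and dicot weeds are grown to the 4- to 6-leaf stage and then sprayed with the compound as an aqueous dispersion at 2000-500 g/ha. They are kept at 24-26 °C and 45-60% RH for 15 days. Injury is then rated from 1 (plant dead) to 9 (like untreated controls).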

Alopecurus myos. [19] = assay: as above; details: 500 bis 2000 [g/ha], 15 days after treatment
Procedure, shortened: as §4

Amaranthus ret. [20] = assay: as above; details: 500 bis 2000 [g/ha], 15 days after treatment
Procedure, shortened: as §4

Avena fatua [21] = assay: as above; details: 500 bis 2000 [g/ha], 15 days after treatment
Procedure, shortened: as §4

Bromus tectorum [22] = assay: as above; details: 500 bis 2000 [g/ha], 15 days after treatment
Procedure, shortened: as §4

Chenopodium Sp. [23] = assay: as above; details: 500 bis 2000 [g/ha], 15 days after treatment
Procedure, shortened: as §4

Chrysanthe. leuc. [24] = assay: as above; details: 500 bis 2000 [g/ha], 15 days after treatment
Procedure, shortened: as §4

Digitaria sang. [25] = assay: as above; details: 500 bis 2000 [g/ha], 15 days after treatment
Procedure, shortened: as §4

Echinochloa crus galli [26] = assay: as above; details: 500 bis 2000 [g/ha], 15 days after treatment
Procedure, shortened: as §4

Galium aparine [27] = assay: as above; details: 500 bis 2000 [g/ha], 15 days after treatment
Procedure, shortened: as §4

Lolium perenne [28] = assay: as above; details: 500 bis 2000 [g/ha], 15 days after treatment
Procedure, shortened: as §4

Sinapis [29] = assay: as above; details: 500 bis 2000 [g/ha], 15 days after treatment
Procedure, shortened: as §4

Solanum nigrum [30] = assay: as above; details: 500 bis 2000 [g/ha], 15 days after treatment
Procedure, shortened: as §4

Sorghum halep. [31] = assay: as above; details: 500 bis 2000 [g/ha], 15 days after treatment
Procedure, shortened: as §4

Stellaria [32] = assay: as above; details: 500 bis 2000 [g/ha], 15 days after treatment
Procedure, shortened: as §4

Veronica Sp. [33] = assay: as above; details: 500 bis 2000 [g/ha], 15 days after treatment
Procedure, shortened: as §4

Xanthium Sp. = assay: as above; details: 500 bis 2000 [g/ha], 15 days after treatment
Procedure, shortened: as §4

Baumwolle = assay: Post-emergent herbicidal action (B.3), crop tolerance; details: 500 bis 2000 [g/ha], 15 days after treatment
Description: as §2, §3
(§5) Eine Anzahl Unkräuter, sowohl monokotyle wie dikotyle, werden nach dem Auflaufen (im 4- bis 6-Blattstadium) mit einer wässrigen Wirkstoffdispersion in einer Dosierung von 2000-500 g Wirksubstanz pro Hektar auf die Pflanzen gespritzt und diese bei 24°-26°C und 45-60 % relativer Luftfeuchtigkeit gehalten. 15 Tage nach der Behandlung wird der Versuch nach dem in Beispiel B.2. gegebenen Massstab bewertet.

Soja [34] = assay: as above; details: 500 bis 2000 [g/ha], 15 days after treatment
Description: as §2, §3, §5

**Q.** Which results are given for `CC1CCCc2nc(C3=NC(=O)C(C)(C(C)C)N3)c(C(=O)O)cc21` (stereo not shown) [Verbindung 2.02, 2-(5-Isopropyl-5-methyl-1 H-imidazol-4-on-2-yl)-5-methyl-5,6,7,8-tetrahydrochinolin-3-carbonsäure]?
**A.** Herbizidwirkung (Abutilon [1]): gute bis sehr gute Herbizidwirkung (Boniturnoten von 1 bis 4 (insbesondere von 1 bis 3) weisen auf eine gute bis sehr gute Herbizidwirkung hin); Herbizidwirkung (Alopecurus myos. [2]): gute bis sehr gute Herbizidwirkung (Boniturnoten von 1 bis 4 (insbesondere von 1 bis 3) weisen auf eine gute bis sehr gute Herbizidwirkung hin); Herbizidwirkung (Amaranthus ret. [3]): gute bis sehr gute Herbizidwirkung (Boniturnoten von 1 bis 4 (insbesondere von 1 bis 3) weisen auf eine gute bis sehr gute Herbizidwirkung hin); Herbizidwirkung (Avena fatua [4]): gute bis sehr gute Herbizidwirkung (Boniturnoten von 1 bis 4 (insbesondere von 1 bis 3) weisen auf eine gute bis sehr gute Herbizidwirkung hin); Herbizidwirkung (Bromus tectorum [5]): gute bis sehr gute Herbizidwirkung (Boniturnoten von 1 bis 4 (insbesondere von 1 bis 3) weisen auf eine gute bis sehr gute Herbizidwirkung hin); Herbizidwirkung (Chenopodium Sp. [6]): gute bis sehr gute Herbizidwirkung (Boniturnoten von 1 bis 4 (insbesondere von 1 bis 3) weisen auf eine gute bis sehr gute Herbizidwirkung hin); Herbizidwirkung (Chrysanthe. leuc. [7]): gute bis sehr gute Herbizidwirkung (Boniturnoten von 1 bis 4 (insbesondere von 1 bis 3) weisen auf eine gute bis sehr gute Herbizidwirkung hin); Herbizidwirkung (Digitaria sang. [8]): gute bis sehr gute Herbizidwirkung (Boniturnoten von 1 bis 4 (insbesondere von 1 bis 3) weisen auf eine gute bis sehr gute Herbizidwirkung hin); Herbizidwirkung (Echinochloa crus galli [9]): gute bis sehr gute Herbizidwirkung (Boniturnoten von 1 bis 4 (insbesondere von 1 bis 3) weisen auf eine gute bis sehr gute Herbizidwirkung hin); Herbizidwirkung (Galium aparine [10]): gute bis sehr gute Herbizidwirkung (Boniturnoten von 1 bis 4 (insbesondere von 1 bis 3) weisen auf eine gute bis sehr gute Herbizidwirkung hin); Herbizidwirkung (Ipomoea): gute bis sehr gute Herbizidwirkung (Boniturnoten von 1 bis 4 (insbesondere von 1 bis 3) weisen auf eine gute bis sehr gute Herbizidwirkung hin); Herbizidwirkung (Lolium perenne [11]): gute bis sehr gute Herbizidwirkung (Boniturnoten von 1 bis 4 (insbesondere von 1 bis 3) weisen auf eine gute bis sehr gute Herbizidwirkung hin); Herbizidwirkung (Sinapis [12]): gute bis sehr gute Herbizidwirkung (Boniturnoten von 1 bis 4 (insbesondere von 1 bis 3) weisen auf eine gute bis sehr gute Herbizidwirkung hin); Herbizidwirkung (Solanum nigrum [13]): gute bis sehr gute Herbizidwirkung (Boniturnoten von 1 bis 4 (insbesondere von 1 bis 3) weisen auf eine gute bis sehr gute Herbizidwirkung hin); Herbizidwirkung (Sorghum halep. [14]): gute bis sehr gute Herbizidwirkung (Boniturnoten von 1 bis 4 (insbesondere von 1 bis 3) weisen auf eine gute bis sehr gute Herbizidwirkung hin); Herbizidwirkung (Stellaria [15]): gute bis sehr gute Herbizidwirkung (Boniturnoten von 1 bis 4 (insbesondere von 1 bis 3) weisen auf eine gute bis sehr gute Herbizidwirkung hin); Herbizidwirkung (Veronica Sp. [16]): gute bis sehr gute Herbizidwirkung (Boniturnoten von 1 bis 4 (insbesondere von 1 bis 3) weisen auf eine gute bis sehr gute Herbizidwirkung hin); Toleranz (im Wachstum beeinflusst) (Soja [17]): gute Toleranz (Boniturnoten von 6 bis 9 (insbesondere 7 bis 9) weisen auf eine gute Toleranz (insbesondere bei Kulturpflanzen) hin); Herbizidwirkung (Abutilon [18]): gute bis sehr gute Herbizidwirkung (Boniturnoten von 1 bis 4 (insbesondere von 1 bis 3) weisen auf eine gute bis sehr gute Herbizidwirkung hin); Herbizidwirkung (Alopecurus myos. [19]): gute bis sehr gute Herbizidwirkung (Boniturnoten von 1 bis 4 (insbesondere von 1 bis 3) weisen auf eine gute bis sehr gute Herbizidwirkung hin); Herbizidwirkung (Amaranthus ret. [20]): gute bis sehr gute Herbizidwirkung (Boniturnoten von 1 bis 4 (insbesondere von 1 bis 3) weisen auf eine gute bis sehr gute Herbizidwirkung hin); Herbizidwirkung (Avena fatua [21]): gute bis sehr gute Herbizidwirkung (Boniturnoten von 1 bis 4 (insbesondere von 1 bis 3) weisen auf eine gute bis sehr gute Herbizidwirkung hin); Herbizidwirkung (Bromus tectorum [22]): gute bis sehr gute Herbizidwirkung (Boniturnoten von 1 bis 4 (insbesondere von 1 bis 3) weisen auf eine gute bis sehr gute Herbizidwirkung hin); Herbizidwirkung (Chenopodium Sp. [23]): gute bis sehr gute Herbizidwirkung (Boniturnoten von 1 bis 4 (insbesondere von 1 bis 3) weisen auf eine gute bis sehr gute Herbizidwirkung hin); Herbizidwirkung (Chrysanthe. leuc. [24]): gute bis sehr gute Herbizidwirkung (Boniturnoten von 1 bis 4 (insbesondere von 1 bis 3) weisen auf eine gute bis sehr gute Herbizidwirkung hin); Herbizidwirkung (Digitaria sang. [25]): gute bis sehr gute Herbizidwirkung (Boniturnoten von 1 bis 4 (insbesondere von 1 bis 3) weisen auf eine gute bis sehr gute Herbizidwirkung hin); Herbizidwirkung (Echinochloa crus galli [26]): gute bis sehr gute Herbizidwirkung (Boniturnoten von 1 bis 4 (insbesondere von 1 bis 3) weisen auf eine gute bis sehr gute Herbizidwirkung hin); Herbizidwirkung (Galium aparine [27]): gute bis sehr gute Herbizidwirkung (Boniturnoten von 1 bis 4 (insbesondere von 1 bis 3) weisen auf eine gute bis sehr gute Herbizidwirkung hin); Herbizidwirkung (Lolium perenne [28]): gute bis sehr gute Herbizidwirkung (Boniturnoten von 1 bis 4 (insbesondere von 1 bis 3) weisen auf eine gute bis sehr gute Herbizidwirkung hin); Herbizidwirkung (Sinapis [29]): gute bis sehr gute Herbizidwirkung (Boniturnoten von 1 bis 4 (insbesondere von 1 bis 3) weisen auf eine gute bis sehr gute Herbizidwirkung hin); Herbizidwirkung (Solanum nigrum [30]): gute bis sehr gute Herbizidwirkung (Boniturnoten von 1 bis 4 (insbesondere von 1 bis 3) weisen auf eine gute bis sehr gute Herbizidwirkung hin); Herbizidwirkung (Sorghum halep. [31]): gute bis sehr gute Herbizidwirkung (Boniturnoten von 1 bis 4 (insbesondere von 1 bis 3) weisen auf eine gute bis sehr gute Herbizidwirkung hin); Herbizidwirkung (Stellaria [32]): gute bis sehr gute Herbizidwirkung (Boniturnoten von 1 bis 4 (insbesondere von 1 bis 3) weisen auf eine gute bis sehr gute Herbizidwirkung hin); Herbizidwirkung (Veronica Sp. [33]): gute bis sehr gute Herbizidwirkung (Boniturnoten von 1 bis 4 (insbesondere von 1 bis 3) weisen auf eine gute bis sehr gute Herbizidwirkung hin); Herbizidwirkung (Xanthium Sp.): gute bis sehr gute Herbizidwirkung (Boniturnoten von 1 bis 4 (insbesondere von 1 bis 3) weisen auf eine gute bis sehr gute Herbizidwirkung hin); Toleranz (im Wachstum beeinflusst) (Baumwolle): gute Toleranz (Boniturnoten von 6 bis 9 (insbesondere 7 bis 9) weisen auf eine gute Toleranz (insbesondere bei Kulturpflanzen) hin); Toleranz (im Wachstum beeinflusst) (Soja [34]): gute Toleranz (Boniturnoten von 6 bis 9 (insbesondere 7 bis 9) weisen auf eine gute Toleranz (insbesondere bei Kulturpflanzen) hin)

Source: EP0327492A1, “Herbicidally and plantgrowth regulatory active quinoline and pyrindine compounds” (CIBA-GEIGY AG, priority 1988, dated 1989)
